The values below come from publication PMC4664558 (Clinical Pharmacology and Therapeutics, 2015).

The nature of data set [1]: Peak plasma / gut / hepatic inlet concentration at the highest clinical dose. The conditions noted are these: for Maximal hepatic inlet concentration ([I]inlet,max): Cmax + (ka x Dose x FaFg/Qh); for Inhibitor concentration ([I]): [I] equal to Cmax. The class given is in vivo, human.
Data set [2] can be described thus: INPC cohort study: risk of myopathy after prescription of drug pairs. The settings on record: adjusted for age and sex; for Risk2 (myopathy risk for drug 2): drug 2 only.
The target in data set [3] is T1, OATP1B2 (Rattus norvegicus, UniProt Q9QZX8).
T1 sequence (Q9QZX8 1-687): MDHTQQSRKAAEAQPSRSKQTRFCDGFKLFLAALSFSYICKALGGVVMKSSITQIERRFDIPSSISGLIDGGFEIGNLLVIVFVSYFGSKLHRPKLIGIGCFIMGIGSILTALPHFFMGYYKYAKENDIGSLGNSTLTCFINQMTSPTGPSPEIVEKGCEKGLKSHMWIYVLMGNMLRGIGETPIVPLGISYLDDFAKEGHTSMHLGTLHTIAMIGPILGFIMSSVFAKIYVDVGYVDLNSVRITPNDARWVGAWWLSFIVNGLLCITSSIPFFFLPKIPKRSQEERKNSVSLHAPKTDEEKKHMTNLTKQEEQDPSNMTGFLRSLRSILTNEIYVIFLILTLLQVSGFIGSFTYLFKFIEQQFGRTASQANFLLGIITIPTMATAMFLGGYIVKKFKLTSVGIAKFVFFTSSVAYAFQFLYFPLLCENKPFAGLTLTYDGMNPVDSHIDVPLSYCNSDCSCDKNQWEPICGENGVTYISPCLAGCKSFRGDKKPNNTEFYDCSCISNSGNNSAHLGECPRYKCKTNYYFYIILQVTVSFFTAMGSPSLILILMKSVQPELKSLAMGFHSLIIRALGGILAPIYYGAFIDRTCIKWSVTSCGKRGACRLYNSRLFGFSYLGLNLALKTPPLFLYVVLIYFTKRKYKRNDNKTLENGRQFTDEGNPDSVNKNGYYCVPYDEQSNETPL
In words: Inhibition of E217βDG active uptake in cryopreserved rat hepatocytes. The conditions noted are these: for Predicted R value: OATP1B1/1B3-based DDI, 1 + [I]inlet,max/Ki, Ki approximated by IC50; for inhibition at 3 min, 100 μM: rat, cryopreserved rat hepatocytes, probe [3H] β-estradiol 17-β-D-glucuronide (E217βDG), 1 μM, 0.1 μCi.

Data set [4] concerns rat L6 myotubes. In words: Myotoxicity in rat L6 myotubes. The settings on record: 10 μM for 5 days, compared to DMSO control. The data set is classed as cell-based.
For data set [5] the following is noted: peak total plasma concentration at the highest clinical dose; cited from earlier work.
Data set [6] concerns the target T2, CYP2D6 (Homo sapiens, UniProt P10635). As to the kind of experiment: biochemical.
The target in data set [7] is CYP2C19 (Homo sapiens, UniProt P33261). In words: Fluorometric CYP inhibition assay. The conditions noted are these: for Ki: pathway CYP2C19. The data set is classed as biochemical.
The target in data set [8] is T3, CYP2C9 (Homo sapiens, UniProt P11712).
Data set [9] addresses T2, CYP2D6.
Data set [10] deals with CYP3A4 (Homo sapiens, UniProt P08684).
The target of data set [11] is T3, CYP2C9. As to the kind of experiment: biochemical. The settings on record: pathway CYP2C9.
The conditions of data set [12]: cited from earlier work.
Setting [13] is: Dissociation constant (Ki), pathway CYP2D6.
The mark [14] stands for this setting: Unbound dissociation constant (Ki,u), pathway CYP2D6, Ki * fu,inc.
Setting [15] is: Unbound dissociation constant (Ki,u), Ki * fu,inc.

Structures are written as SMILES. Several values for one entry are separate records, joined by “and”; a condition that tells them apart may be missing. Identical values can stand only once. Like-named read-outs stand apart in the source and are kept apart here.

T2 sequence (P10635 whole entry): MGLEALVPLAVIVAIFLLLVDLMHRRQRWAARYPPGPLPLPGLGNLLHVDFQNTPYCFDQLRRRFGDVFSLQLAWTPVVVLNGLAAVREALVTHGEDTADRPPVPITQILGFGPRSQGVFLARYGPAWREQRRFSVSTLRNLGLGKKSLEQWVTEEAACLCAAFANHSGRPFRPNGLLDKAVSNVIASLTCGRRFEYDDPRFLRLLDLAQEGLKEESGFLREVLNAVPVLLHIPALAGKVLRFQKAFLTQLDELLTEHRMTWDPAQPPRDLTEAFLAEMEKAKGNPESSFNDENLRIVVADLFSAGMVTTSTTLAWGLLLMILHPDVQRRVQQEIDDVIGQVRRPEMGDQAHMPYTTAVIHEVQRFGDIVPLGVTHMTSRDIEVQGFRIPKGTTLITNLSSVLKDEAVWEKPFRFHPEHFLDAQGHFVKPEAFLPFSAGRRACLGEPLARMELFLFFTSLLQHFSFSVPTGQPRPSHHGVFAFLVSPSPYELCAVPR
Sequence of CYP2C19 (P33261 whole entry): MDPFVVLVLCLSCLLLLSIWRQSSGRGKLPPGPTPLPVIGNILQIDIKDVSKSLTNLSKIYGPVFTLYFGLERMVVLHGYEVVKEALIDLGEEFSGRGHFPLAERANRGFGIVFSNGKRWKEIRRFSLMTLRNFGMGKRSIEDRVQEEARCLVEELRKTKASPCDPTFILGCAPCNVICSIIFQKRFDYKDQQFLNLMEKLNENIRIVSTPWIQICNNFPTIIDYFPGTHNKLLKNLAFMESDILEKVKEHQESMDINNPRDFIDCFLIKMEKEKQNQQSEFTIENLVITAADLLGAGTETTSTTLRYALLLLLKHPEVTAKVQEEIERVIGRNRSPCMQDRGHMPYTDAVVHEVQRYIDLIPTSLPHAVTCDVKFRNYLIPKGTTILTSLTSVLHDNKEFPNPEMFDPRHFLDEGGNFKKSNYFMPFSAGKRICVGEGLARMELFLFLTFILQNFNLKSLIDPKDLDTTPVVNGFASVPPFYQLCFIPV
T3 sequence (P11712 whole entry): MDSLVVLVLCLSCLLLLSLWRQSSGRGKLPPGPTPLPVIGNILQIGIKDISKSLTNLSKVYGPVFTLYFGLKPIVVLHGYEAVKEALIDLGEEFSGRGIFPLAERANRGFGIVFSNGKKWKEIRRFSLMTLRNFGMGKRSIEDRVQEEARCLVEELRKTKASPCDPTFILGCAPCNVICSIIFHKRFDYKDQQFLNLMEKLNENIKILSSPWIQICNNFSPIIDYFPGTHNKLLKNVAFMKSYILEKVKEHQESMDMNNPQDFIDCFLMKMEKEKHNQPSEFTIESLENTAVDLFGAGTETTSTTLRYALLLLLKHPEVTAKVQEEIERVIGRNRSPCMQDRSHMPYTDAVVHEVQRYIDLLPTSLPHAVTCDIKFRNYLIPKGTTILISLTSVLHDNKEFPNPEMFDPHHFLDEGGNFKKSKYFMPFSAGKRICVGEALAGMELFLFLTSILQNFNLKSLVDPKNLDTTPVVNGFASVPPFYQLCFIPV
Sequence of CYP3A4 (P08684 whole entry): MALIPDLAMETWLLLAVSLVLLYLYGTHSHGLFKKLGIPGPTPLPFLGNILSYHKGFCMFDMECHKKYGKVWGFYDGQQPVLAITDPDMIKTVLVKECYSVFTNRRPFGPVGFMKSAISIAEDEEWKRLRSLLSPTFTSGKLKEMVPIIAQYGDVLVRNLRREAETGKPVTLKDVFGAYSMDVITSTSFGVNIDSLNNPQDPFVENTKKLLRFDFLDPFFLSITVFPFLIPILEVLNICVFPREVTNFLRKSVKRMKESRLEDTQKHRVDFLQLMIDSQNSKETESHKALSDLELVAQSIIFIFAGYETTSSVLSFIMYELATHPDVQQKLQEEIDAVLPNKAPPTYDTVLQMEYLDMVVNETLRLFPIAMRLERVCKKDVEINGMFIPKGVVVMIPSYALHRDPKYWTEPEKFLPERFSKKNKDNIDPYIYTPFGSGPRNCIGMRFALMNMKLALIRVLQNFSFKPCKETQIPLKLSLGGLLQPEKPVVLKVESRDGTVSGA

As to `Cc1nnc2n1-c1ccc(Cl)cc1C(c1ccccc1)=NC2` [Alprazolam], in data set [1], the “Maximal hepatic inlet concentration ([I]inlet,max)” value (shortened to “Maximal hepatic inlet concentration”) was determined as 0.981 µM. In data set [2], the “Risk2 (myopathy risk for drug 2)” value was 0.029. Besides, in data set [3], the IC50 came to 99.5 µM; the “Predicted R value” is 1.01; the inhibition at 3 min, 100 μM was found to be 54.5 ± 0.3%.

`Clc1ccc2c(c1)CCc1cccnc1C2=C1CCNCC1` [Desloratadine] showed a myotube death in data set [4] of 73.3 ± 1.1%.

With `CCOC(=O)N1CCC(=C2c3ccc(Cl)cc3CCc3cccnc32)CC1` [Loratadine], the “Inhibitor concentration ([I])” value in data set [1] is reported as 0.011 µM. Also, the “Risk1 (myopathy risk for drug 1)” value in [2] (drug 1 only) was 0.022 and 0.020.

On to `COc1ccc2[nH]c([S+]([O-])Cc3ncc(C)c(OC)c3C)nc2c1` (stereo not drawn) [Omeprazole], for which, in data set [1], the “Maximal hepatic inlet concentration” value is 19.586 µM. In addition, the “Risk2 (myopathy risk for drug 2)” value in data set [2] is reported as 0.059. Besides, in [3], half-maximal inhibition (IC50) required 84.3 µM; the “Predicted R value” is recorded as 1.23; the inhibition at 3 min, 100 μM was 60.1 ± 4.8%.

With `CC(CN1c2ccccc2Sc2ccccc21)N(C)C` (stereo not drawn) [Promethazine], the “Inhibitor concentration ([I])” value in data set [1] was 0.068 µM. Further, the “Peak plasma concentration (Cmax)” value in data set [5] is 19.3 (36) ng/ml. The Ki was found to be 0.25 µM in data set [6] (Dissociation constant (Ki)) and 0.22 µM in data set [6] (Unbound dissociation constant (Ki,u)). For the same compound, the inhibition at 3 min, 100 μM in data set [3] was found to be 17.7 ± 7.7%.

For the compound `CCCN(CCC)CCc1cccc2c1CC(=O)N2` [Ropinirole], in [1], the “Inhibitor concentration ([I])” value is given as 0.103 µM. Also, the “Peak plasma concentration (Cmax)” value in data set [5] is listed as 26.9 (37) ng/ml. Also, the Ki in data set [6] (setting [13]) was found to be 0.85 µM; in data set [6] (setting [14]), 0.71 µM. The “Risk2 (myopathy risk for drug 2)” value in data set [2] was determined as 0.018. The inhibition at 3 min, 100 μM in data set [3] came out at 23.7 ± 2.7%.

On to `CCC(C)(C)C(=O)O[C@H]1C[C@@H](C)C=C2C=C[C@H](C)[C@H](CC[C@@H](O)C[C@@H](O)CC(=O)O)[C@H]21` [Simvastatin acid], for which the “Maximal hepatic inlet concentration” value in [1] turned out to be 12.274 µM. This compound also registered a myotube death in data set [4] of 33.0 ± 2.1%.

Compound `CCC(C)(C)C(=O)O[C@H]1C[C@@H](C)C=C2C=C[C@H](C)[C@H](CC[C@@H]3C[C@@H](O)CC(=O)O3)[C@H]21` [Simvastatin] yielded a myotube death in data set [4] of 73.7 ± 2.6%. Also, the “Risk2 (myopathy risk for drug 2)” value in data set [2] is listed as 0.033.

Take `[H]/N=C(/NCCCCC)N/N=C/c1c[nH]c2ccc(OC)cc12` [Tegaserod]: the “Predicted R-values” in data set [7] was 1.00; in data set [8], 1.00; in data set [9] it was 1.02; in data set [10], 1.17. The Ki in [7] (Dissociation constant (Ki)) is 9.2 µM; in [7] (setting [15]) it was 8.48 µM; in data set [11] (Dissociation constant (Ki)), 11.4 µM; in data set [11] (setting [15]), 10.5 µM; in data set [6] (setting [13]), 0.51 µM; in [6] (setting [14]), 0.47 µM. Further, in data set [1], the “Inhibitor concentration ([I])” value is listed as 0.009 µM. For the same compound, the myotube death in [4] is reported as 97.9 ± 0.4%. In addition, in [5], the “Peak plasma concentration (Cmax)” value is recorded as 2.7 (39) ng/ml. For the same compound, in data set [2], the “Risk2 (myopathy risk for drug 2)” value was 0.020. The compound also yielded an inhibition at 3 min, 100 μM in data set [3] of 24.6 ± 15.3%.

For `COCc1c(C(C)C)nc(C(C)C)c(/C=C/[C@@H](O)C[C@@H](O)CC(=O)O)c1-c1ccc(F)cc1` [cerivastatin], the “risk of rhabdomyolysis relative to other statins” value in data set [12] is listed as 10 fold; in [12] (with concurrent use of gemfibrozil), 50 fold.

Broadly, the IC50 is the concentration needed to halve the response being measured. Read a high IC50 as weaker potency. The inhibition is the relative decrease from the control value, in per cent. A word on the Ki: it is the equilibrium dissociation constant of an inhibitor or competing ligand from its target. A high value points to lower affinity.
